Laboratory results: publication PMC4626104, “Inhibition on Proteasome β1 Subunit Might Contribute to the Anti-Cancer Effects of Fangchinoline in Human Prostate Cancer Cells” (PLoS ONE, 2015)
Read-outs that look alike come from different tables or passages of the source.

Key:
[1] = test system: PC-3 tumor xenografts; assay: PC-3 tumor xenograft experiments (tumor volume, TUNEL); format: in vivo, nude mice
Method: Male nude immunodeficient mice Balb/c-nu-nu, aged 4 weeks, were purchased from Shanghai Experimental Animal Center. All procedures involving animals were approved by the Institutional Animal Care and Use Committee of Shanghai Institute of Materia Medica, Chinese Academy of Sciences. On day 0, PC-3 cells (8×10^6 cells) suspended in 0.2 mL of serum-free RPMI 1640 were inoculated s.c. in the right flank of each mouse (six mice per group). 14 days after inoculation, mice were randomly divided into 3 groups and started injection with either vehicle control or fangchinoline at 25 mg/kg (ip., QD) or 50 mg/kg (ip., QD). Tumor sizes were measured every 4 days using calipers and their volumes were calculated using a standard formula: width^2×length/2. The relative tumor volume (RTV) was defined as the ratio of the tumor volume at a indicated time and the tumor volume at the start of drug treatment. Body weight was measured daily. On day 30 after inoculation, mice were sacrificed by CO2 inhalation and tumor xenografts were dissected. To visualize apoptosis in tumor xenografts, TUNEL labeling was conducted to detect apoptotic nuclei using In Situ Death Detection Kit (Roche Molecular Biochemicals). Briefly, tumor xenografts were fixed with 10% formalin solution at room temperature for 24 h and then embedded by paraffin. Specimens were heated for 1h by Water Bath-Slide Drier (LEICA H1 1220, German), incubated with dimethylbenzene for two times (8 min each) and then incubated with 100%, 95%, 90% and 85% ethanol for two times (3 min each). Specimens were then incubated with 0.1M Citrate buffer (pH 6.0) for microwave irradiation. After washing with PBS for two times (3 min each), slices were incubated with reaction buffer (from the In Situ Death Detection Kit) in a humid atmosphere at 37°C for 1 h. Slices were then washed with PBS three times (3 min each) to remove unincorporated fluorescein–deoxyuridine triphosphate. Nuclei were counterstained with 4,6-diamidino-2-phenylindole (DAPI) 1 μg/mL for 3 min and then washed with PBS for three times (3 min each). Images were captured using a 20X objective (Olympus BX51, Japan) on an epifluorescence microscope. Furthermore, the proteasome activities of tumor xenografts were assayed. Briefly, tumor xenografts were homogenerized in proteasome activity assay buffer using the FastPrep System (MP FastPrep-24, U.S.A), then centrifugation at 4°C for 30 min. The supernatants were then used for assay of proteasome activities using method as described above for analysis of cellular proteasome activities.

[2] = test system: PSMB6 knockdown PC-3 cells; assay: MTT assay in PC-3 cells with knockdown of proteasome β1 subunit (PSMB6 siRNA); format: cell-based, human; conditions: 72 h treatment, vs negative control cells
Method: (§1) The inhibitive effects of fangchinoline on proliferation of PC-3 cells or LnCap cells was observed by checking cell viability of cells using MTT assay as described before. Briefly, cells were seeded in 96-well plates at a density of 5×10^4 cells/mL for PC-3 cell and 4×10^4 cells/mL for LnCap cells. After overnight culture, the media were changed into fresh media containing various concentrations of fangchinoline or 0.1% DMSO (solvent control) for 24, 48 h or 72 h. Cell viability was evaluated by measuring the mitochondrial-dependent conversion of the yellow tetrazolium salt MTT to purple formazan crystals by metabolic active cells. The optical density (proportional to the number of live cells) was assessed with a Microplate Reader Bio-Rad 550 at 570 nm. IC50 value (half-maximal inhibitory concentration) was calculated by the Logit method.
Validated siRNAs for PSMB6 (Sigma-Aldrich) were transfected into PC-3 cells by using Lipofectamine RNAiMAX (Invitrogen) according to the manufacturer’s protocol. Scrambled negative control siRNAs (Sigma-Aldrich) were used as negative control. Expression levels of PSMB6 (proteasome β1 subunit) in wide type cells, PSMB6 knockdown cells (cells treated with siRNAs for PSMB6), negative control cells (cells transfected with scrambled negative control siRNAs) were checked using Western blotting assay. […]

[3] = test system: LnCap cells; assay: MTT assay of cell proliferation, LnCap cells; format: cell-based; conditions: Homo sapiens, read-out: IC50 inhibiting cell proliferation
Method: as §1

[4] = 25mg/kg ip. QD, day 14 after inoculation (start of treatment)
[5] = 25mg/kg ip. QD, day 17 after inoculation
[6] = 25mg/kg ip. QD, day 21 after inoculation
[7] = 25mg/kg ip. QD, day 24 after inoculation
[8] = 25mg/kg ip. QD, day 27 after inoculation
[9] = 25mg/kg ip. QD, day 30 after inoculation
[10] = 50mg/kg ip. QD, day 14 after inoculation (start of treatment)
[11] = 50mg/kg ip. QD, day 17 after inoculation
[12] = 50mg/kg ip. QD, day 21 after inoculation
[13] = 50mg/kg ip. QD, day 24 after inoculation
[14] = 50mg/kg ip. QD, day 27 after inoculation
[15] = 50mg/kg ip. QD, day 30 after inoculation

## COc1ccc2cc1Oc1ccc(cc1)C[C@H]1c3cc(c(OC)cc3CCN1C)Oc1c(O)c(OC)cc3c1[C@H](C2)N(C)CC3 [fangchinoline]
[1]; [4]
  Tumor volume (Maximum): 519.59 mm^3
  Tumor volume (Mean ± SEM): 370.0±42.37 mm^3
[1]; [5]
  Tumor volume (Maximum): 512.11 mm^3
  Tumor volume (Mean ± SEM): 356.5±51.63 mm^3
[1]; [6]
  Tumor volume (Maximum): 812.68 mm^3
  Tumor volume (Mean ± SEM): 577.7±53.05 mm^3
[1]; [7]
  Tumor volume (Maximum): 1147.52 mm^3
  Tumor volume (Mean ± SEM): 955.0±78.87 mm^3
[1]; [8]
  Tumor volume (Maximum): 1439.56 mm^3
  Tumor volume (Mean ± SEM): 1248±50.73 mm^3
[1]; [9]
  Tumor volume (Maximum): 1655.05 mm^3
  Tumor volume (Mean ± SEM): 1413±61.89 mm^3
[1]; [10]
  Tumor volume (Maximum): 356.43 mm^3
  Tumor volume (Mean ± SEM): 348.4±3.470 mm^3
[1]; [11]
  Tumor volume (Maximum): 402.14 mm^3
  Tumor volume (Mean ± SEM): 321.3±21.46 mm^3
[1]; [12]
  Tumor volume (Maximum): 462.36 mm^3
  Tumor volume (Mean ± SEM): 374.8±37.58 mm^3
[1]; [13]
  Tumor volume (Maximum): 812.28 mm^3
  Tumor volume (Mean ± SEM): 593.8±593.8 mm^3
[1]; [14]
  Tumor volume (Maximum): 1008.40 mm^3
  Tumor volume (Mean ± SEM): 857.0±41.00 mm^3
[1]; [15]
  Tumor volume (Maximum): 1263.09 mm^3
  Tumor volume (Mean ± SEM): 1120±66.28 mm^3
[1]; 25 and 50 mg/kg ip. QD
  Growth of PC-3 xenografts (relative tumor volume): dose-dependently inhibit
[1]; animals treated with fangchinoline
  Apoptosis in PC-3 xenografts (TUNEL labeling): apoptosis was induced
[2]
  Effect of knockdown of proteasome β1 subunit on proliferation inhibition: ameliorated proliferation-inhibiting effects
[3]; 24 h
  IC50: 36.2 ± 6.33 µM
[3]; 48 h
  IC50: 11.6 ± 0.22 µM
[3]; 72 h
  IC50: 12.7 ± 0.59 µM
